Several values for one entry are separate records, joined by “and”; a condition that tells them apart may be missing. Equal values may be shown once. Toxic doses and inconclusive results are not listed. The calls were made as follows: active = survival T/C of 150% or more; inactive = T/C below 125% in these data.
Test system: P388 leukemia ip, CD2F1 mice, survival T/C
Assay: NCI In Vivo Anticancer Drug Screen. Data for tumor model P388 Leukemia (intraperitoneal) in CD2F1 (CDF1) mice
Conditions: endpoint: median survival time, higher = longer survival
Method in brief: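 Mice carrying the transplanted tumor received test compound or vehicle. Survival was recorded in each group, and the value is the treated-group measurement divided by that of the vehicle-treated control group.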

[1] = dose: 100.0 mg/kg/injection, schedule: Q04DX003 (ip), vehicle: Klucel (hydroxypropylcellulose) (HPC)
[2] = dose: 60.0 mg/kg/injection, schedule: Q01DX005 (ip), vehicle: saline with Tween-80
[3] = dose: 120.0 mg/kg/injection, schedule: Q01DX005 (ip), vehicle: saline with Tween-80
[4] = dose: 240.0 mg/kg/injection, schedule: Q01DX005 (ip), vehicle: saline with Tween-80
[5] = dose: 50.0 mg/kg/injection, schedule: Q01DX005 (ip), vehicle: saline with Tween-80
[6] = dose: 100.0 mg/kg/injection, schedule: Q01DX005 (ip), vehicle: saline with Tween-80
[7] = dose: 200.0 mg/kg/injection, schedule: Q01DX005 (ip), vehicle: saline with Tween-80
[8] = dose: 50.0 mg/kg/injection, schedule: Q01DX005 (ip), vehicle: Klucel (hydroxypropylcellulose) (HPC)

Measured: T/C

CC(C)=CO[Si](C)(C)C
inactive: dose: 50.0 mg/kg/injection, schedule: Q01DX009 (ip), vehicle: olive oil, sesame oil, peanut oil 99 % of control | dose: 100.0 mg/kg/injection, schedule: Q01DX009 (ip), vehicle: olive oil, sesame oil, peanut oil 99 % of control | dose: 200.0 mg/kg/injection, schedule: Q01DX009 (ip), vehicle: olive oil, sesame oil, peanut oil 114 % of control

Cc1c([N+](=O)[O-])oc2c1C(=O)N([N+](=O)[O-])CCC2
inactive: [1] 114 % of control

CCC=Nc1c(O)cc(-c2ccccc2)n(C)c1=O
inactive: [2] 94 % of control | [3] 100 % of control

COC(=O)c1nc(=S)[nH]c(C(=O)OC)c1C(=O)c1ccccc1
inactive: dose: 60.0 mg/kg/injection, schedule: Q01DX005 (ip), vehicle: Klucel + Tween-80 101 % of control | dose: 120.0 mg/kg/injection, schedule: Q01DX005 (ip), vehicle: Klucel + Tween-80 93 % of control | dose: 240.0 mg/kg/injection, schedule: Q01DX005 (ip), vehicle: Klucel + Tween-80 92 % of control

Cn1cnc([N+](=O)[O-])c1Sc1ccncn1
inactive: dose: 25.0 mg/kg/injection, schedule: Q01DX009 (ip), vehicle: saline 101 % of control and 105 % of control | dose: 50.0 mg/kg/injection, schedule: Q01DX009 (ip), vehicle: saline 99 % of control and 103 % of control and 114 % of control | dose: 100.0 mg/kg/injection, schedule: Q01DX009 (ip), vehicle: saline 103 % of control and 118 % of control | dose: 200.0 mg/kg/injection, schedule: Q01DX009 (ip), vehicle: saline 112 % of control and 116 % of control

COC(OC)C1(C)NC(=O)NC1=O (configuration not stated)
inactive: dose: 50.0 mg/kg/injection, schedule: Q01DX009 (ip), vehicle: Klucel (hydroxypropylcellulose) (HPC) 102 % of control | dose: 100.0 mg/kg/injection, schedule: Q01DX009 (ip), vehicle: Klucel (hydroxypropylcellulose) (HPC) 103 % of control | [1] 95 % of control | dose: 200.0 mg/kg/injection, schedule: Q01DX009 (ip), vehicle: Klucel (hydroxypropylcellulose) (HPC) 93 % of control | dose: 200.0 mg/kg/injection, schedule: Q04DX003 (ip), vehicle: Klucel (hydroxypropylcellulose) (HPC) 98 % of control | dose: 400.0 mg/kg/injection, schedule: Q04DX003 (ip), vehicle: Klucel (hydroxypropylcellulose) (HPC) 100 % of control

Nc1ccc(CCCC(=O)NCc2cccnc2)cc1
inactive: [2] 106 % of control | [3] 96 % of control | [4] 91 % of control

COc1cc2c(cc1O)C(c1cc(O)c(O)c(OC)c1)C(O)(C(=O)O)C(CO)C2O (configuration not stated)
inactive: [5] 100 % of control | [6] 101 % of control | [7] 99 % of control

Cc1nc2ccccc2nc1NNc1ccccc1
inactive: [5] 90 % of control | [6] 87 % of control | [7] 87 % of control

OC(/C=C\CC(O)(C(F)(F)F)C(F)(F)F)(C(F)(F)F)C(F)(F)F
inactive: dose: 3.12 mg/kg/injection, schedule: Q01DX009 (ip), vehicle: saline 100 % of control | dose: 6.25 mg/kg/injection, schedule: Q01DX009 (ip), vehicle: saline 106 % of control | dose: 12.5 mg/kg/injection, schedule: Q01DX009 (ip), vehicle: saline with Tween-80 91 % of control | dose: 12.5 mg/kg/injection, schedule: Q01DX009 (ip), vehicle: saline 93 % of control

O[C@H]1CCN2CO[C@@H](c3ccccc3)C[C@H]2C1
inactive: dose: 12.5 mg/kg/injection, schedule: Q01DX005 (ip), vehicle: Klucel (hydroxypropylcellulose) (HPC) 102 % of control | dose: 25.0 mg/kg/injection, schedule: Q01DX005 (ip), vehicle: Klucel (hydroxypropylcellulose) (HPC) 103 % of control | [8] 102 % of control

CN(C)CCCNC(=O)c1n[nH]c(=S)[nH]c1=O
inactive: [5] 101 % of control | [6] 100 % of control | [7] 95 % of control

COc1ccc2c(c1OC)C(=O)OC2C(=O)NCCc1ccc2c(c1)OCO2 (configuration not stated)
inactive: [8] 92 % of control | dose: 100.0 mg/kg/injection, schedule: Q01DX005 (ip), vehicle: Klucel (hydroxypropylcellulose) (HPC) 92 % of control | dose: 200.0 mg/kg/injection, schedule: Q01DX005 (ip), vehicle: Klucel (hydroxypropylcellulose) (HPC) 93 % of control

CCOC(=O)c1nc[nH]c1C
inactive: [5] 100 % of control | [6] 101 % of control | [7] 100 % of control

Fc1cccc(Cl)c1CSc1n[nH]c(C(F)(F)F)n1
inactive: [2] 102 % of control | [3] 100 % of control | [4] 111 % of control

— PubChem BioAssay AID330 (DTP/NCI, 2004)
